pIC50: −log10 of the molar value. Where two headings read alike, the source gives them in different places.
What was measured:
[1] = tested on: phosphorylation of CDK1 at Thr14 in HCC1806 cells; test: Cell lysate AlphaLISA assay measuring inhibition of phosphorylation of CDK1 Thr14; type: cell-based; settings: read-out: Cellular IC50
Protocol: (§1) Biochemical IC50 values were determined via ADP-Glo™ assay. Cellular IC50 values were determined via AlphaLISA assay.
Cell lysate AlphaLISA® assay measuring inhibition of phosphorylation of CDK1 Thr14. Inhibition of phosphorylation of CDK1 at Thr14 was determined using AlphaLISA® SureFire® Ultra™ Kit from Perkin Elmer (ALSU-PCDK1-A10K). HCC1806 cells were seeded at 2K cells per well (50 μl/well) in 384-well plates (Corning 3570) and stored overnight at 37° C. and 5% CO2. The following day, the compounds dissolved in DMSO were introduced to the cells and incubated for 4 hours at 37° C. and 5% CO2. The cells were then washed with PBS using Blue®Washer and 10 μl of lysis buffer containing protease inhibitor was added. The plate was placed on an orbital shaker (at 4° C.) for 30 minutes and stored overnight at −80° C. for complete lysing. The next day, the plates were thawed at room temperature for at least 30 min. Reagents were prepared in a dimmed light setting (<100 lumens). The assay was run by first adding 5 μl of the acceptor mix (reaction buffer 1: reaction buffer 2: activation buffer: acceptor beads 47:47:4:2), covering the plate with foil, shaking for 2 minutes and incubating at RT for 60 minutes. The donor mix (dilution buffer: donor beads 47:3) was then added at 5 μl per well, placed on the shaker for 2 minutes and incubated at RT for 60 minutes before reading the plates on a PHERAstar® plate reader. The results were normalized to DMSO (0% Inhibition) and 3 μM of reference compound.

[2] = biological target: T1, PKMYT1 (Homo sapiens, UniProt Q99640); test: ADP-Glo PKMYT1 ATP-depletion assay; settings: 50 nM PKMYT1, 13.3 nM CDK1, read-out: Biochemical IC50
T1 construct: PKMYT1 (93 kD, full length, N-terminal GST tag from Signal Chem); GST (N); purchased Signal Chem
T1 sequence (Q99640 1-499): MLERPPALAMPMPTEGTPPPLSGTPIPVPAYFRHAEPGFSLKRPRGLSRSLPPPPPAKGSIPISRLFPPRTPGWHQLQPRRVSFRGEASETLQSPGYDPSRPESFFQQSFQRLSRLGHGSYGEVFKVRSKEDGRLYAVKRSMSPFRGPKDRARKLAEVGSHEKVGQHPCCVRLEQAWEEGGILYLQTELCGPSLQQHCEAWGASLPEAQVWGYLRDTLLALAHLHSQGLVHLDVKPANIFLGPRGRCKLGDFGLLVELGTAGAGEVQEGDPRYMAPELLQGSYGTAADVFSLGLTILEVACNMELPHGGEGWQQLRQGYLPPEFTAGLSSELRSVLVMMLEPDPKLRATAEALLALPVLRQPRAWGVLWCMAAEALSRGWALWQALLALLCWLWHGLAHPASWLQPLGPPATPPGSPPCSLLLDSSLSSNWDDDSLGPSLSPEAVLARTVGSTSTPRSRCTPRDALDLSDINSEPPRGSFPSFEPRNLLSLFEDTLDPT
Protocol: as §1
ADP-Glo™ PKMYT1 ATP-depletion assay. The activity of PKMYT1 is measured using a luciferase-luciferin based ATP detection reaction to quantify ATP depletion resulting from kinase-catalyzed phosphoryl transfer to CDK1 or autophosphorylation of PKMYT1. The ADP generated as a byproduct of the reaction is converted to ATP and used to drive a luciferase reaction. Test compounds were dissolved in DMSO and dispensed into Corning 3824 384-well plates prior to the experiment such that the final DMSO concentration was <1%. To the compounds was added 3 μL of PKMYT1 (93 kD, full length, N-terminal GST tag from Signal Chem). The reaction was started by the addition of 2 μL of CDK1 (58 kDa, full length, N-terminal GST tag from Signal Chem) and ATP in assay buffer (50 mM Hepes, 40 mM NaCl, 10 mM MgCl2, 1 mM DTT, 0.1 mg/mL BSA, 2.5 mM MnCl2). Final assay concentrations were 50 nM PKMYT1, 13.3 nM CDK1, and 88 µM ATP. Plates were centrifuged for 1 minute at 1000 RPM and incubated at RT for 120 minutes. After the incubation period, ADP-Glo™ reagent was added and the plates were incubated for another 40 minutes before finally adding the kinase detection reagent. 30 minutes after the addition, plates were placed on a PHERAstar® plate reader and read using the Luminescence Protocol, integration time at 0.5 seconds.

| SMILES | pIC50 ([1]; 4 hours) | pIC50 [2] | pIC50 ([1]; Homo sapiens, HCC1806, 4 h) |
| --- | --- | --- | --- |
| Cc1n[nH]c2cccc(-c3c(N)c(C(N)=O)cc4nccnc34)c12 (single isomer, unassigned) [Compound 119, (P)-7-amino-8-(3-methyl-1H-indazol-4-yl)quinoxaline-6-carboxamide] | ≤ 5.30 | ≤ 5.30 | – |
| CCn1ccc2cc(C(N)=O)c(N)c(-c3cccc(O)c3C)c2c1=O (atropisomer, axis not shown) [Compound 329] | 6.30 to 7.30 | > 7.30 | – |
| NC(=O)c1nc2cccnc2c(-c2cnccc2C(F)(F)F)c1N [Compound 259] | – | 6.00 to 6.30 | ≤ 5.30 |
| NC(=O)c1cc2nccnc2c(-c2cc(O)ccc2Cl)c1N (atropisomer, axis not shown) [Compound 151] | – | 6.30 to 7.30 | – |
| Cc1c(O)cc(O)cc1-c1c(N)c(C(N)=O)cc2nccnc12 [Compound 331] | – | 6.30 to 7.30 | ≤ 5.30 |
| Cc1ccc(O)c(C)c1-c1c(N)c(C(N)=O)nc2c(F)cccc12 (single isomer, unassigned) [Compound 39, (P)-3-amino-8-fluoro-4-(3-hydroxy-2,6-dimethylphenyl)quinoline-2-carboxamide] | ≤ 5.30 | ≤ 5.30 | – |
| Cc1ccc(O)c(C)c1-c1c(N)c(C(N)=O)nc2cc(F)ccc12 [Compound 43, 3-Amino-7-fluoro-4-(3-hydroxy-2,6-dimethylphenyl)quinoline-2-carboxamide] | – | 6.30 to 7.30 | 5.30 to 6.00 |
| Cc1c(O)cncc1-c1c(N)c(C(N)=O)cc2nccnc12 [Compound 113, 7-amino-8-(5-hydroxy-4-methylpyridin-3-yl)quinoxaline-6-carboxamide] | – | 6.30 to 7.30 | 5.30 to 6.00 |
| Cc1c(O)cccc1-c1c(N)c(C(N)=O)cc2ncc(=O)n(C)c12 [Compound 202] | – | 5.30 to 6.00 | ≤ 5.30 |
| Cc1ccc(O)c(C)c1-c1c(N)c(C(N)=O)nc2ccc(Cl)cc12 (single isomer, unassigned) [Compound 54, (P)-3-amino-6-chloro-4-(3-hydroxy-2,6-dimethylphenyl)quinoline-2-carboxamide] | ≤ 5.30 | ≤ 5.30 | – |
| Cc1ccc(O)c(C)c1-c1c(N)c(C(N)=O)cc2nc(C)c(C)nc12 [Compound 94, 7-Amino-8-(3-hydroxy-2,6-dimethylphenyl)-2,3-dimethylquinoxaline-6-carboxamide] | – | > 7.30 | 6.30 to 7.30 |
| CCn1ccc2cc(C(N)=O)c(N)c(-c3cccc(O)c3C)c2c1=O (atropisomer, axis not shown) [Compound 328] | ≤ 5.30 | ≤ 5.30 | – |
| Cc1c(-c2c(N)c(C(N)=O)cc3nccnc23)ccnc1O [Compound 159] | – | ≤ 5.30 | ≤ 5.30 |
| Cc1c(O)cccc1-c1c(N)c(C(N)=O)cc2nc(C)c(=O)n(C)c12 (atropisomer, axis not shown) [Compound 170] | ≤ 5.30 | ≤ 5.30 | – |
| Cc1c(O)cccc1-c1c(N)c(C(N)=O)cc2ccn(C)c(=O)c12 (atropisomer, axis not shown) [Compound 337] | 5.30 to 6.00 | 6.00 to 6.30 | – |
| Cc1ccc(O)c(C)c1-c1c(N)c(C(N)=O)cc2nccnc12 (single isomer, unassigned) [Compound 83, (P)-7-Amino-8-(3-hydroxy-2,6-dimethylphenyl)quinoxaline-6-carboxamide] | 6.30 to 7.30 | > 7.30 | – |
| COc1cccc(-c2cc(C(N)=O)nc3c(C)ccc(C)c23)c1C [Compound 134] | – | ≤ 5.30 | ≤ 5.30 |
| Cc1c(O)cccc1-c1c(N)c(C(N)=O)nc2nccc(C#N)c12 [Compound 260] | – | ≤ 5.30 | ≤ 5.30 |
| Cc1c(O)cccc1-c1c(N)c(C(N)=O)cc2nc(C(F)(F)F)c(O)nc12 (atropisomer, axis not shown) [Compound 135] | 5.30 to 6.00 | 6.30 to 7.30 | – |
| Cc1ccc2[nH]nc(F)c2c1-c1c(N)c(C(N)=O)cc2nccnc12 (atropisomer, axis not shown) [Compound 299] | ≤ 5.30 | ≤ 5.30 | – |

Source: patent US20260176270A1 (Exelixis, Inc., priority 2022, published 2026)
